Assay results: paper PMC11258351, “PK/PD investigation of antiviral host matriptase/TMPRSS2 inhibitors in cell models” (Scientific Reports, 2024)
Values joined by “and” are separate entries in the source; they are usually repeats but may differ in a detail not shown here. Equal values may be shown once. “Also recorded” adds a separate entry of the source. Read-outs that look alike come from different tables or passages of the source.

Tests used:
[1] = Prediction of in vivo human PK parameters from hepatocyte clearance; type: in vitro ADME; details: for Classification (extraction type) / Extraction ratio EH: predicted; for Predicted Cl, CLH: predicted from hepatocyte Clint, fu = 1
[2] = test system: H9N2 IAV strain A/quail/Shantou/782/00; type: cell-based, influenza A virus; details: MDCK-II cells, 24 h
[3] = test system: H9N2 IAV strain A/quail/Shantou/782/00; type: cell-based, influenza A virus; details: MDCK-II cells
[4] = test system: A/Hamburg/5/09 (H1N1pdm); type: cell-based, influenza A virus
[5] = test system: primary human hepatocytes; assay: Cytotoxicity in primary human hepatocytes; type: cell-based; details: 50 µM, 24 h
Method: Supplementary Figure S1. Cytotoxicity of MI-463 and MI-1900 at 50 µM for 24 h in primary human hepatocytes. DMSO was applied as solvent control at 0.5% for 24 h.

[6] = molecular target: T1, CYP1A2 (Homo sapiens, UniProt P05177); set-up: method as in PMID 34915414; details: earlier study; cited from earlier work
T1 sequence (P05177 1-516): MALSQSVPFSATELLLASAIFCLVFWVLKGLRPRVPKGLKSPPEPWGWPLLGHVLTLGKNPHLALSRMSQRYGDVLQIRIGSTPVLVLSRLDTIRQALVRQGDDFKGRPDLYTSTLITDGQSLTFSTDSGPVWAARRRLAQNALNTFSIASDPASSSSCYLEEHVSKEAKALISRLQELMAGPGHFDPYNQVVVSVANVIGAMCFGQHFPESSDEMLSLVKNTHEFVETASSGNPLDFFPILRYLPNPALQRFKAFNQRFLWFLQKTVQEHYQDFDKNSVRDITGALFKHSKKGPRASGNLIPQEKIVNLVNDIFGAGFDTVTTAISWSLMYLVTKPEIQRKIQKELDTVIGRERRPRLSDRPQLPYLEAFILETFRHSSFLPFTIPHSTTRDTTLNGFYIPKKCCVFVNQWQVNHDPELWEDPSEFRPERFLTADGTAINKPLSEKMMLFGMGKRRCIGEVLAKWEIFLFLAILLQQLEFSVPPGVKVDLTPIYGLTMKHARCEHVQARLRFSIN

[7] = molecular target: T2, CYP2C9 (Homo sapiens, UniProt P11712); set-up: method as in PMID 34915414; details: earlier study; cited from earlier work
T2 sequence (P11712 whole entry): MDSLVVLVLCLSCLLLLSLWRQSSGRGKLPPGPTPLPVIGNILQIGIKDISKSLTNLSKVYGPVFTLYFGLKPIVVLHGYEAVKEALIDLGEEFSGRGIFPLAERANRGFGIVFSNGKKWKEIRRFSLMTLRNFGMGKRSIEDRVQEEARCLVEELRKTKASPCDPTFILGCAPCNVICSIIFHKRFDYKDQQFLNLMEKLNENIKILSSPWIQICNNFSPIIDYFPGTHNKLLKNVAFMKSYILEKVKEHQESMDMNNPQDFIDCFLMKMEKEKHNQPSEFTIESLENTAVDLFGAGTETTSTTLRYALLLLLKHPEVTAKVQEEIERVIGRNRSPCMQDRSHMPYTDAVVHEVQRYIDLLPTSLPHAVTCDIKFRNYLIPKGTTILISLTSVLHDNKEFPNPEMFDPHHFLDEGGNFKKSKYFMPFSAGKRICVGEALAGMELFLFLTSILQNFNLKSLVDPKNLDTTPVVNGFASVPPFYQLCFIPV

[8] = molecular target: T3, CYP2C19 (Homo sapiens, UniProt P33261); set-up: method as in PMID 34915414; details: earlier study; cited from earlier work
T3 sequence (P33261 whole entry): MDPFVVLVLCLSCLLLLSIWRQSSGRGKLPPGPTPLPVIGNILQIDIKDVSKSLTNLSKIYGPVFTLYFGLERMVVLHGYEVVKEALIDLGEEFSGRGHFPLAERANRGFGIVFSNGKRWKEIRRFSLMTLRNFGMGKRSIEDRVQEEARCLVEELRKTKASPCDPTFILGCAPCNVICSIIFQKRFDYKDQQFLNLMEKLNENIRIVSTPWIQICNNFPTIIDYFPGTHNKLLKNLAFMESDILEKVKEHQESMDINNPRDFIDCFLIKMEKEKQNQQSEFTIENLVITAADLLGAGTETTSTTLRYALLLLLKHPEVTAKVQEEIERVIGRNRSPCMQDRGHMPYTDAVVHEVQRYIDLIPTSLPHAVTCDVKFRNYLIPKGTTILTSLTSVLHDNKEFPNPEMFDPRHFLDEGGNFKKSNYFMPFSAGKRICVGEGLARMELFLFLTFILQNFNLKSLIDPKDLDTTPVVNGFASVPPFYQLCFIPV

[9] = molecular target: T4, CYP2D6 (Homo sapiens, UniProt P10635); set-up: method as in PMID 34915414; details: earlier study; cited from earlier work
T4 sequence (P10635 whole entry): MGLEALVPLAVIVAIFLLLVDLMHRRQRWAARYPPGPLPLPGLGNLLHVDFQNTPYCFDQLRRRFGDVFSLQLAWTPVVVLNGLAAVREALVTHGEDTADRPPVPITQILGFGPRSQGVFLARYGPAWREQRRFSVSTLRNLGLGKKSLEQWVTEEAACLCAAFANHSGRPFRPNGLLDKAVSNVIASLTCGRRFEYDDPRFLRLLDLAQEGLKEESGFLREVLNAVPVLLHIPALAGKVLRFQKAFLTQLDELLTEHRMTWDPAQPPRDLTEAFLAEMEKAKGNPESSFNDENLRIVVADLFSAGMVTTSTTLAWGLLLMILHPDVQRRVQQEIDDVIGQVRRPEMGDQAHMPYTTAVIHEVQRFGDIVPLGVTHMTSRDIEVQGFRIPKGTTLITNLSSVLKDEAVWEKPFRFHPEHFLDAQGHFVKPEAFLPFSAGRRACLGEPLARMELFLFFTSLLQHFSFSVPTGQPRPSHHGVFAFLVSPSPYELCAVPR

[10] = molecular target: matriptase; set-up: method as in PMID 35635944; details: cited from earlier work
[11] = molecular target: TMPRSS2; set-up: method as in PMID 35635944; details: cited from earlier work
[12] = test system: monkey CYP1A2; set-up: method as in PMID 35448654; details: cited from earlier work
[13] = test system: rat CYP1A2; set-up: method as in PMID 35448654; details: cited from earlier work
[14] = test system: beagle dog CYP1A2; set-up: method as in PMID 35448654; details: cited from earlier work
[15] = test system: cynomolgus monkey hepatocytes; set-up: method as in PMID 31391268; details: cited from earlier work
[16] = molecular target: T5, CYP3A4 (Homo sapiens, UniProt P08684); assay: Fluorometric CYP3A4 activity assay in human hepatic microsomes; details: for Effect on CYP3A4 enzyme activity: human liver microsomes, 10, 25 and 50 µM; for Effect on CYP3A4 enzyme activity at the lowest applied concentration: human liver microsomes, lowest applied concentration (10 µM)
T5 sequence (P08684 whole entry): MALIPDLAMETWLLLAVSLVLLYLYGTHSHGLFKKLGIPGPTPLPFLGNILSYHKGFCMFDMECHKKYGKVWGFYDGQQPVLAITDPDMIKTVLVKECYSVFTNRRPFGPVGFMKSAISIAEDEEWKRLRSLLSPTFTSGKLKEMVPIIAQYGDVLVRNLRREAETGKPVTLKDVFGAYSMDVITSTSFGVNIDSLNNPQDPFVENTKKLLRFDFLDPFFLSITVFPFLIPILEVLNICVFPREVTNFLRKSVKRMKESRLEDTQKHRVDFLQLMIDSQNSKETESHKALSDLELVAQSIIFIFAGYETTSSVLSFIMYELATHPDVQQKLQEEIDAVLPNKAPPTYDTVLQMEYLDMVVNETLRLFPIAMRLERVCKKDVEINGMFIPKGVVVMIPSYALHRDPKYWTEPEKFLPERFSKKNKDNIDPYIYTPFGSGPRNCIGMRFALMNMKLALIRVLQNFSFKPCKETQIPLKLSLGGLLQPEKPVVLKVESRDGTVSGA

[17] = Depletion of inhibitors in human primary hepatocyte suspension (LC-MS/MS); details: human, cryopreserved primary human hepatocytes in suspension; for CLint scaled at 10 µM: intrinsic clearance from primary human hepatocytes scaled to whole liver/body weight
[18] = test system: human primary hepatocytes; assay: as above; details: for Parent compound retained at the 120-min sampling point / Sampling interval at which significant depletion was first observed: primary human hepatocytes, 10 µM; for Parent compound retained at the 120-min sampling point: % of 0-min concentration, mean ± S.E.M.; for Sampling interval at which significant depletion was first observed: sampling 0-120 min
[19] = test system: H9N2; details: MDCK-II cells, 20 μM and 50 μM; cited from earlier work
[20] = molecular target: T1, CYP1A2; assay: Fluorometric CYP1A2 activity assay in human hepatic microsomes; details: human liver microsomes, protease inhibitors at 50 µM, 15 min 37 °C
[21] = molecular target: T2, CYP2C9; assay: Fluorometric CYP2C9 activity assay in human hepatic microsomes; details: human liver microsomes, protease inhibitors at 50 µM, 15 min 37 °C
[22] = molecular target: T4, CYP2D6; assay: Fluorometric CYP2D6 activity assay in human hepatic microsomes; details: human liver microsomes; for Inhibition of CYP2D6 activity: protease inhibitors at 50 µM, 15 min 37 °C
[23] = molecular target: T3, CYP2C19; assay: Fluorometric CYP2C19 activity assay in human hepatic microsomes; details: human liver microsomes, protease inhibitors at 50 µM, 15 min 37 °C
[24] = molecular target: T5, CYP3A4; set-up: method as in PMID 34915414; details: fluorometric assays, earlier study; cited from earlier work
[25] = test system: SARS-CoV-2; set-up: method as in PMID 32703818; details: Calu-3 cells, 50 μM, 24 h p.i.; cited from earlier work
[26] = test system: Calu-3 cells; set-up: method as in PMID 32703818; details: 50 μM; cited from earlier work

Structure (SMILES): COc1ccc(-c2cccc(S(=O)(=O)N[C@@H](Cc3cccc(C(=N)N)c3)C(=O)N3CCC(NC(=O)NC4CCCCC4)CC3)c2)c(OC)c1 [MI-463]
- Classification (extraction type) [1]: Intermediate
- Extraction ratio EH [1]: 0.37
- Predicted Cl, CLH [1]: 7.60
- H9N2 viral spread / formation of viral foci ([2]; MOI 0.01, 20 µM): marked reduction of viral spread
- H9N2 viral spread / formation of viral foci ([2]; MOI 0.01, 50 µM): fully prevented formation of viral foci; also recorded: fully preventing the formation of H9N2 viral foci
- Reduction of H9N2 viral titers compared to untreated controls ([3]; 20 µM, 24 h): approximately 1.4 log
- Reduction of H9N2 viral titers compared to untreated controls ([3]; 20 µM, 48 h): 2.1 logs
- Reduction of H9N2 viral titers compared to untreated controls ([3]; 50 µM, 24 h): ~1.8 log
- Reduction of H9N2 viral titers compared to untreated controls ([3]; 50 µM, 48 h): 2.6 logs
- Reduction of H1N1 viral titers [4]: 0.95–1.34 logs
- Cytotoxicity in primary human hepatocytes [5]: No significant differences in cell viabilities; also recorded: lack of cytotoxicity
- Inhibition of CYP1A2 activity [6]: No significant CYP inhibitory potential
- Inhibition of CYP2C9 activity [7]: No significant CYP inhibitory potential
- Inhibition of CYP2C19 activity [8]: No significant CYP inhibitory potential
- Inhibition of CYP2D6 activity [9]: No significant CYP inhibitory potential
- Ki [10]: 4 nM
- Ki [11]: 3 nM
- Inhibition of monkey CYP1A2 [12]: significant inhibition
- Inhibition of rat CYP1A2 [13]: significant inhibition
- Inhibition of beagle dog CYP1A2 [14]: no significant inhibition
- Treatment time after which significant conversion was seen [15]: 60 to 120 min
- Effect on CYP3A4 enzyme activity [16]: significant inhibitory effect
- Effect on CYP3A4 enzyme activity at the lowest applied concentration [16]: potent inhibitors
- half-life at 10 µM [17]: 3.57 h
- CLint scaled at 10 µM [17]: 21.3 mL/min/kg
- Parent compound retained at the 120-min sampling point [18]: 66.7 ± 5.5% and 66.7%
- Sampling interval at which significant depletion was first observed [18]: 30 min

Structure (SMILES): COc1ccc(-c2cccc(S(=O)(=O)N[C@@H](Cc3cccc(C(=N)N)c3)C(=O)N3CCC(NC(=O)NC(C)(C)C)CC3)c2)c(OC)c1 [MI-485]
- Classification (extraction type) [1]: Intermediate
- Extraction ratio EH [1]: 0.39
- Predicted Cl, CLH [1]: 8.17
- Treatment time after which significant conversion was seen [15]: 60 to 120 min
- Effect on H9N2 virus propagation [19]: most pronounced reduction
- Inhibition of CYP1A2 activity [20]: No significant CYP inhibitory potential
- Inhibition of CYP2C9 activity [21]: No significant CYP inhibitory potential
- Inhibition of CYP2D6 activity [22]: No significant CYP inhibitory potential
- Effect on CYP3A4 enzyme activity [16]: significant inhibitory effect
- Effect on CYP3A4 enzyme activity at the lowest applied concentration [16]: potent inhibitors
- Inhibition of CYP2C19 activity [23]: No significant CYP inhibitory potential
- half-life at 10 µM [17]: 2.86 h
- CLint scaled at 10 µM [17]: 26.6 mL/min/kg
- Parent compound retained at the 120-min sampling point [18]: 64.9 ± 5.3%
- Sampling interval at which significant depletion was first observed [18]: 30 min

Structure (SMILES): COc1ccc(-c2cccc(S(=O)(=O)N[C@@H](Cc3cccc(C(=N)N)c3)C(=O)N3CCN(C(=O)NC4CCCCC4)CC3)c2)c(OC)c1 [MI-1900]
- Classification (extraction type) [1]: Intermediate
- Extraction ratio EH [1]: 0.45
- Predicted Cl, CLH [1]: 9.23
- H9N2 viral spread / formation of viral foci ([2]; MOI 0.01, 50 µM): strong suppression of viral spread
- Reduction of H1N1 titers [4]: 1.62 logs
- Cytotoxicity in primary human hepatocytes [5]: No significant differences in cell viabilities; also recorded: lack of cytotoxicity
- Inhibition of CYP1A2 activity [6]: No significant CYP inhibitory potential
- Inhibition of CYP2C9 activity [7]: No significant CYP inhibitory potential
- Inhibition of CYP2C19 activity [8]: No significant CYP inhibitory potential
- Inhibition of CYP2D6 activity [9]: No significant CYP inhibitory potential
- Inhibition of CYP3A4 activity [24]: substantial inhibitory effects
- Ki [10]: 38 nM
- Ki [11]: 79 nM
- Reduction of SARS-CoV-2 viral titers compared to control samples [25]: 35 to 280 fold
- Influence on Calu-3 cell viability [26]: without influencing Calu-3 cell viabilitiy significantly
- Inhibition of monkey CYP1A2 [12]: significant inhibition
- Inhibition of rat CYP1A2 [13]: significant inhibition
- Inhibition of beagle dog CYP1A2 [14]: no significant inhibition
- Treatment time after which significant conversion was seen [15]: 60 to 120 min
- Effect on H9N2 virus propagation [19]: strongly inhibiting its replication
- half-life at 10 µM [17]: 1.8 h
- CLint scaled at 10 µM [17]: 42.3 mL/min/kg
- Parent compound retained at the 120-min sampling point [18]: 48.6 ± 1.5%
- Sampling interval at which significant depletion was first observed [18]: 30 min

Structure (SMILES): CC(C)(C)NC(=O)NC1CCN(C(=O)[C@H](Cc2cccc(C(=N)N)c2)NS(=O)(=O)c2cccc(-c3ccc(CO)cc3)c2)CC1 [MI-1903]
- Classification (extraction type) [1]: Intermediate
- Extraction ratio EH [1]: 0.51
- Predicted Cl, CLH [1]: 10.56
- H9N2 viral spread / formation of viral foci ([2]; MOI 0.01, 50 µM): only slightly reduced formation of viral foci
- Inhibition of CYP1A2 activity [20]: No significant CYP inhibitory potential
- Inhibition of CYP2C9 activity [21]: No significant CYP inhibitory potential
- Inhibition of CYP2D6 activity [22]: No significant CYP inhibitory potential
- Effect on CYP3A4 enzyme activity [16]: significant inhibitory effect
- Inhibition of CYP2C19 activity [23]: No significant CYP inhibitory potential
- half-life at 10 µM [17]: 0.753 h
- CLint scaled at 10 µM [17]: 101 mL/min/kg
- CLint ([18]; intrinsic clearance from primary human hepatocytes scaled to whole liver/body weight): 101.03 mL/min/kg
- Parent compound retained at the 120-min sampling point [18]: 38.6 ± 5.5%
- Sampling interval at which significant depletion was first observed [18]: 30 min

Structure (SMILES): CC(C)(C)NC(=O)NC1CCN(C(=O)[C@H](Cc2cccc(C(=N)N)c2)NS(=O)(=O)c2cccc(-c3ccc(CO)c(F)c3)c2)CC1 [MI-1904]
- Classification (extraction type) [1]: Intermediate
- Extraction ratio EH [1]: 0.35
- Predicted Cl, CLH [1]: 7.29
- Effect on H9N2 virus propagation [19]: most pronounced reduction
- Inhibition of CYP1A2 activity [20]: No significant CYP inhibitory potential
- Inhibition of CYP2C9 activity [21]: No significant CYP inhibitory potential
- Inhibition of CYP2D6 activity [22]: No significant CYP inhibitory potential
- Effect on CYP3A4 enzyme activity [16]: significant inhibitory effect
- Inhibition of CYP2C19 activity [23]: No significant CYP inhibitory potential
- half-life at 10 µM [17]: 3.99 h
- CLint scaled at 10 µM [17]: 19.1 mL/min/kg
- Parent compound retained at the 120-min sampling point [18]: 70.8 ± 8.6%
- Sampling interval at which significant depletion was first observed [18]: 120 min

Structure (SMILES): C=C[C@H]1C[N@@]2CC[C@H]1C[C@@H]2[C@@H](O)c1ccnc2ccc(OC)cc12 [quinidine, reference compound]
- Inhibition of CYP2D6 activity by reference inhibitor ([22]; 3 µM, p < 0.001): significantly suppressed
